Laboratory results: patent publication US7118895B2, “Process for producing aglycon by using diglycosidase and flavor-improved food containing the aglycon and converting agent to be used in the process” (Amano Enzyme Inc., priority 2000, dated 2006)

Columns and labels:
[1] = test system: β-Glucosidase derived from almond; test: Reactivity toward various isoflavone glycosides (HPLC); assay type: biochemical; set-up: unit not given here; details: 55 °C, pH 4.0
In short: (§1)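 Aglycone liberation was measured by reversed-phase HPLC (260 nm, calibration-curve quantitation) after ethanol extraction at 0, 1, 3 and 6 h. Reactions ran at 55° C, pH 4.0 (20 mM acetate), with each glycoside (from 2 mM methanol stock) and 0.75 AU/mL enzyme solution.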

[2] = test system: β-Xylosidase derived from pectinase G; test: as above; assay type: biochemical; set-up: unit not given here; details: 55 °C, pH 4.0
In short: as §1

Crude diglycosidase = test: Examination of substrate concentration in the conversion into isoflavone aglycons by diglycosidase using soybean materials; assay type: biochemical, Penicillium multicolor IAM7153;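 note: percent of the isoflavone family total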
In short: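 Reaction at 55° C, shaken, pH 4.0 (20 mM acetate), using crude diglycosidase from a 1.88 AU/mL enzyme solution on soy flour, soymilk, defatted soybean or soy protein concentrate at 2, 5, 10, 20 or 30% (w/v). Isoflavone aglycons quantified by HPLC of ethanol extracts at 0, 1, 3, 6 h.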

## O=c1c(-c2ccc(O)cc2)coc2cc(O[C@@H]3O[C@H](CO)[C@@H](O)[C@H](O)[C@H]3O)cc(O)c12 [genistin]
[1]; Reaction time 0 h
  aglycon: 0
  glucoside: 100
[1]; Reaction time 1 h
  aglycon: 9.4
  glucoside: 90.6
[1]; Reaction time 3 h
  aglycon: 11.4
  glucoside: 88.6
[1]; Reaction time 6 h
  aglycon: 11.8
  glucoside: 88.2
[2]; Reaction time 0 h
  aglycon: 0
  glucoside: 100
[2]; Reaction time 1 h
  aglycon: 1.5
  glucoside: 98.5
[2]; Reaction time 3 h
  aglycon: 1.8
  glucoside: 98.2
[2]; Reaction time 6 h
  aglycon: 1.8
  glucoside: 98.2
Crude diglycosidase; concentrated soybean protein, substrate concentration 2%, heat treatment of enzyme no, reaction time 0 h
  Decomposition efficiency: ratio of each glycoside/aglycon within its isoflavone family: 50.5%
Crude diglycosidase; concentrated soybean protein, substrate concentration 2%, heat treatment of enzyme no, reaction time 1 h
  Decomposition efficiency: ratio of each glycoside/aglycon within its isoflavone family: 1.2%
Crude diglycosidase; concentrated soybean protein, substrate concentration 2%, heat treatment of enzyme no, reaction time 3 h
  Decomposition efficiency: ratio of each glycoside/aglycon within its isoflavone family: not detected
Crude diglycosidase; concentrated soybean protein, substrate concentration 2%, heat treatment of enzyme no, reaction time 6 h
  Decomposition efficiency: ratio of each glycoside/aglycon within its isoflavone family: not detected
Crude diglycosidase; concentrated soybean protein, substrate concentration 2%, heat treatment of enzyme yes, reaction time 6 h
  Decomposition efficiency: ratio of each glycoside/aglycon within its isoflavone family: 51.6%
Crude diglycosidase; concentrated soybean protein, substrate concentration 5%, heat treatment of enzyme no, reaction time 0 h
  Decomposition efficiency: ratio of each glycoside/aglycon within its isoflavone family: 51.2%
Crude diglycosidase; concentrated soybean protein, substrate concentration 5%, heat treatment of enzyme no, reaction time 1 h
  Decomposition efficiency: ratio of each glycoside/aglycon within its isoflavone family: not detected
Crude diglycosidase; concentrated soybean protein, substrate concentration 5%, heat treatment of enzyme no, reaction time 3 h
  Decomposition efficiency: ratio of each glycoside/aglycon within its isoflavone family: not detected
Crude diglycosidase; concentrated soybean protein, substrate concentration 5%, heat treatment of enzyme no, reaction time 6 h
  Decomposition efficiency: ratio of each glycoside/aglycon within its isoflavone family: not detected
Crude diglycosidase; concentrated soybean protein, substrate concentration 5%, heat treatment of enzyme yes, reaction time 6 h
  Decomposition efficiency: ratio of each glycoside/aglycon within its isoflavone family: 52.2%
Crude diglycosidase; concentrated soybean protein, substrate concentration 10%, heat treatment of enzyme no, reaction time 0 h
  Decomposition efficiency: ratio of each glycoside/aglycon within its isoflavone family: 50.6%
Crude diglycosidase; concentrated soybean protein, substrate concentration 10%, heat treatment of enzyme no, reaction time 1 h
  Decomposition efficiency: ratio of each glycoside/aglycon within its isoflavone family: 1.3%
Crude diglycosidase; concentrated soybean protein, substrate concentration 10%, heat treatment of enzyme no, reaction time 3 h
  Decomposition efficiency: ratio of each glycoside/aglycon within its isoflavone family: not detected
Crude diglycosidase; concentrated soybean protein, substrate concentration 10%, heat treatment of enzyme no, reaction time 6 h
  Decomposition efficiency: ratio of each glycoside/aglycon within its isoflavone family: not detected
Crude diglycosidase; concentrated soybean protein, substrate concentration 10%, heat treatment of enzyme yes, reaction time 6 h
  Decomposition efficiency: ratio of each glycoside/aglycon within its isoflavone family: 50.9%
Crude diglycosidase; concentrated soybean protein, substrate concentration 20%, heat treatment of enzyme no, reaction time 0 h
  Decomposition efficiency: ratio of each glycoside/aglycon within its isoflavone family: 50.4%
Crude diglycosidase; concentrated soybean protein, substrate concentration 20%, heat treatment of enzyme no, reaction time 1 h
  Decomposition efficiency: ratio of each glycoside/aglycon within its isoflavone family: 6.0%
Crude diglycosidase; concentrated soybean protein, substrate concentration 20%, heat treatment of enzyme no, reaction time 3 h
  Decomposition efficiency: ratio of each glycoside/aglycon within its isoflavone family: not detected
Crude diglycosidase; concentrated soybean protein, substrate concentration 20%, heat treatment of enzyme no, reaction time 6 h
  Decomposition efficiency: ratio of each glycoside/aglycon within its isoflavone family: not detected
Crude diglycosidase; concentrated soybean protein, substrate concentration 20%, heat treatment of enzyme yes, reaction time 6 h
  Decomposition efficiency: ratio of each glycoside/aglycon within its isoflavone family: 50.8%
Crude diglycosidase; concentrated soybean protein, substrate concentration 30%, heat treatment of enzyme no, reaction time 0 h
  Decomposition efficiency: ratio of each glycoside/aglycon within its isoflavone family: 54.6%
Crude diglycosidase; concentrated soybean protein, substrate concentration 30%, heat treatment of enzyme no, reaction time 1 h
  Decomposition efficiency: ratio of each glycoside/aglycon within its isoflavone family: 2.8%
Crude diglycosidase; concentrated soybean protein, substrate concentration 30%, heat treatment of enzyme no, reaction time 3 h
  Decomposition efficiency: ratio of each glycoside/aglycon within its isoflavone family: not detected
Crude diglycosidase; concentrated soybean protein, substrate concentration 30%, heat treatment of enzyme no, reaction time 6 h
  Decomposition efficiency: ratio of each glycoside/aglycon within its isoflavone family: not detected
Crude diglycosidase; concentrated soybean protein, substrate concentration 30%, heat treatment of enzyme yes, reaction time 6 h
  Decomposition efficiency: ratio of each glycoside/aglycon within its isoflavone family: 55.6%
Crude diglycosidase; roasted soy flour, substrate concentration 2%, heat treatment of enzyme no, reaction time 0 h
  Decomposition efficiency: ratio of each glycoside/aglycon within its isoflavone family: 33.2%
Crude diglycosidase; roasted soy flour, substrate concentration 2%, heat treatment of enzyme no, reaction time 1 h
  Decomposition efficiency: ratio of each glycoside/aglycon within its isoflavone family: not detected
Crude diglycosidase; roasted soy flour, substrate concentration 2%, heat treatment of enzyme no, reaction time 3 h
  Decomposition efficiency: ratio of each glycoside/aglycon within its isoflavone family: not detected
Crude diglycosidase; roasted soy flour, substrate concentration 2%, heat treatment of enzyme no, reaction time 6 h
  Decomposition efficiency: ratio of each glycoside/aglycon within its isoflavone family: not detected
Crude diglycosidase; roasted soy flour, substrate concentration 2%, heat treatment of enzyme yes, reaction time 6 h
  Decomposition efficiency: ratio of each glycoside/aglycon within its isoflavone family: 48.4%
Crude diglycosidase; roasted soy flour, substrate concentration 5%, heat treatment of enzyme no, reaction time 0 h
  Decomposition efficiency: ratio of each glycoside/aglycon within its isoflavone family: 47.8%
Crude diglycosidase; roasted soy flour, substrate concentration 5%, heat treatment of enzyme no, reaction time 1 h
  Decomposition efficiency: ratio of each glycoside/aglycon within its isoflavone family: not detected
Crude diglycosidase; roasted soy flour, substrate concentration 5%, heat treatment of enzyme no, reaction time 3 h
  Decomposition efficiency: ratio of each glycoside/aglycon within its isoflavone family: not detected
Crude diglycosidase; roasted soy flour, substrate concentration 5%, heat treatment of enzyme no, reaction time 6 h
  Decomposition efficiency: ratio of each glycoside/aglycon within its isoflavone family: not detected
Crude diglycosidase; roasted soy flour, substrate concentration 5%, heat treatment of enzyme yes, reaction time 6 h
  Decomposition efficiency: ratio of each glycoside/aglycon within its isoflavone family: 47.8%
Crude diglycosidase; roasted soy flour, substrate concentration 10%, heat treatment of enzyme no, reaction time 0 h
  Decomposition efficiency: ratio of each glycoside/aglycon within its isoflavone family: 59.5%
Crude diglycosidase; roasted soy flour, substrate concentration 10%, heat treatment of enzyme no, reaction time 1 h
  Decomposition efficiency: ratio of each glycoside/aglycon within its isoflavone family: not detected
Crude diglycosidase; roasted soy flour, substrate concentration 10%, heat treatment of enzyme no, reaction time 3 h
  Decomposition efficiency: ratio of each glycoside/aglycon within its isoflavone family: not detected
Crude diglycosidase; roasted soy flour, substrate concentration 10%, heat treatment of enzyme no, reaction time 6 h
  Decomposition efficiency: ratio of each glycoside/aglycon within its isoflavone family: not detected
Crude diglycosidase; roasted soy flour, substrate concentration 10%, heat treatment of enzyme yes, reaction time 6 h
  Decomposition efficiency: ratio of each glycoside/aglycon within its isoflavone family: 49.5%
Crude diglycosidase; roasted soy flour, substrate concentration 20%, heat treatment of enzyme no, reaction time 0 h
  Decomposition efficiency: ratio of each glycoside/aglycon within its isoflavone family: 50.5%
Crude diglycosidase; roasted soy flour, substrate concentration 20%, heat treatment of enzyme no, reaction time 1 h
  Decomposition efficiency: ratio of each glycoside/aglycon within its isoflavone family: not detected
Crude diglycosidase; roasted soy flour, substrate concentration 20%, heat treatment of enzyme no, reaction time 3 h
  Decomposition efficiency: ratio of each glycoside/aglycon within its isoflavone family: not detected
Crude diglycosidase; roasted soy flour, substrate concentration 20%, heat treatment of enzyme no, reaction time 6 h
  Decomposition efficiency: ratio of each glycoside/aglycon within its isoflavone family: not detected
Crude diglycosidase; roasted soy flour, substrate concentration 20%, heat treatment of enzyme yes, reaction time 6 h
  Decomposition efficiency: ratio of each glycoside/aglycon within its isoflavone family: 49.5%
Crude diglycosidase; roasted soy flour, substrate concentration 30%, heat treatment of enzyme no, reaction time 0 h
  Decomposition efficiency: ratio of each glycoside/aglycon within its isoflavone family: 49.4%
Crude diglycosidase; roasted soy flour, substrate concentration 30%, heat treatment of enzyme no, reaction time 1 h
  Decomposition efficiency: ratio of each glycoside/aglycon within its isoflavone family: 5.7%
Crude diglycosidase; roasted soy flour, substrate concentration 30%, heat treatment of enzyme no, reaction time 3 h
  Decomposition efficiency: ratio of each glycoside/aglycon within its isoflavone family: 9.6%
Crude diglycosidase; roasted soy flour, substrate concentration 30%, heat treatment of enzyme no, reaction time 6 h
  Decomposition efficiency: ratio of each glycoside/aglycon within its isoflavone family: 2.0%
Crude diglycosidase; roasted soy flour, substrate concentration 30%, heat treatment of enzyme yes, reaction time 6 h
  Decomposition efficiency: ratio of each glycoside/aglycon within its isoflavone family: 50.1%
Crude diglycosidase; soymilk, substrate concentration 2%, heat treatment of enzyme no, reaction time 0 h
  Decomposition efficiency: ratio of each glycoside/aglycon within its isoflavone family: 54.5%
Crude diglycosidase; soymilk, substrate concentration 2%, heat treatment of enzyme no, reaction time 1 h
  Decomposition efficiency: ratio of each glycoside/aglycon within its isoflavone family: not detected
Crude diglycosidase; soymilk, substrate concentration 2%, heat treatment of enzyme no, reaction time 3 h
  Decomposition efficiency: ratio of each glycoside/aglycon within its isoflavone family: not detected
Crude diglycosidase; soymilk, substrate concentration 2%, heat treatment of enzyme no, reaction time 6 h
  Decomposition efficiency: ratio of each glycoside/aglycon within its isoflavone family: not detected
Crude diglycosidase; soymilk, substrate concentration 2%, heat treatment of enzyme yes, reaction time 6 h
  Decomposition efficiency: ratio of each glycoside/aglycon within its isoflavone family: 38.0%
Crude diglycosidase; soymilk, substrate concentration 5%, heat treatment of enzyme no, reaction time 0 h
  Decomposition efficiency: ratio of each glycoside/aglycon within its isoflavone family: 31.5%
Crude diglycosidase; soymilk, substrate concentration 5%, heat treatment of enzyme no, reaction time 1 h
  Decomposition efficiency: ratio of each glycoside/aglycon within its isoflavone family: not detected
Crude diglycosidase; soymilk, substrate concentration 5%, heat treatment of enzyme no, reaction time 3 h
  Decomposition efficiency: ratio of each glycoside/aglycon within its isoflavone family: not detected
Crude diglycosidase; soymilk, substrate concentration 5%, heat treatment of enzyme no, reaction time 6 h
  Decomposition efficiency: ratio of each glycoside/aglycon within its isoflavone family: not detected
Crude diglycosidase; soymilk, substrate concentration 5%, heat treatment of enzyme yes, reaction time 6 h
  Decomposition efficiency: ratio of each glycoside/aglycon within its isoflavone family: 37.9%
Crude diglycosidase; soymilk, substrate concentration 10%, heat treatment of enzyme no, reaction time 0 h
  Decomposition efficiency: ratio of each glycoside/aglycon within its isoflavone family: 32.9%
Crude diglycosidase; soymilk, substrate concentration 10%, heat treatment of enzyme no, reaction time 1 h
  Decomposition efficiency: ratio of each glycoside/aglycon within its isoflavone family: not detected
Crude diglycosidase; soymilk, substrate concentration 10%, heat treatment of enzyme no, reaction time 3 h
  Decomposition efficiency: ratio of each glycoside/aglycon within its isoflavone family: not detected
Crude diglycosidase; soymilk, substrate concentration 10%, heat treatment of enzyme no, reaction time 6 h
  Decomposition efficiency: ratio of each glycoside/aglycon within its isoflavone family: not detected
Crude diglycosidase; soymilk, substrate concentration 10%, heat treatment of enzyme yes, reaction time 6 h
  Decomposition efficiency: ratio of each glycoside/aglycon within its isoflavone family: 37.6%
Crude diglycosidase; soymilk, substrate concentration 20%, heat treatment of enzyme no, reaction time 0 h
  Decomposition efficiency: ratio of each glycoside/aglycon within its isoflavone family: 33.3%
Crude diglycosidase; soymilk, substrate concentration 20%, heat treatment of enzyme no, reaction time 1 h
  Decomposition efficiency: ratio of each glycoside/aglycon within its isoflavone family: not detected
Crude diglycosidase; soymilk, substrate concentration 20%, heat treatment of enzyme no, reaction time 3 h
  Decomposition efficiency: ratio of each glycoside/aglycon within its isoflavone family: not detected
Crude diglycosidase; soymilk, substrate concentration 20%, heat treatment of enzyme no, reaction time 6 h
  Decomposition efficiency: ratio of each glycoside/aglycon within its isoflavone family: not detected
Crude diglycosidase; soymilk, substrate concentration 20%, heat treatment of enzyme yes, reaction time 6 h
  Decomposition efficiency: ratio of each glycoside/aglycon within its isoflavone family: 38.6%
Crude diglycosidase; soymilk, substrate concentration 30%, heat treatment of enzyme no, reaction time 0 h
  Decomposition efficiency: ratio of each glycoside/aglycon within its isoflavone family: 33.6%
Crude diglycosidase; soymilk, substrate concentration 30%, heat treatment of enzyme no, reaction time 1 h
  Decomposition efficiency: ratio of each glycoside/aglycon within its isoflavone family: not detected
Crude diglycosidase; soymilk, substrate concentration 30%, heat treatment of enzyme no, reaction time 3 h
  Decomposition efficiency: ratio of each glycoside/aglycon within its isoflavone family: not detected
Crude diglycosidase; soymilk, substrate concentration 30%, heat treatment of enzyme no, reaction time 6 h
  Decomposition efficiency: ratio of each glycoside/aglycon within its isoflavone family: not detected
Crude diglycosidase; soymilk, substrate concentration 30%, heat treatment of enzyme yes, reaction time 6 h
  Decomposition efficiency: ratio of each glycoside/aglycon within its isoflavone family: 38.6%
